According to patent publication US11590109B2 (priority 2016, dated 2023):

Assays:
H3N2 (influenza virus) [1] = assay: microbe, parasite or virus in culture; settings: Influenza A virus, H3N2, MDCK
H3N2 (influenza virus) [2] = settings: H3N2 in host cell MDCK
in vitro [3] = settings: dog
H1N1 (influenza virus) [4] = assay: microbe, parasite or virus in culture; settings: Influenza A virus, H1N1, MDCK
H1N1 (influenza virus) [5] = settings: H1N1 in host cell MDCK
H7N9 (influenza virus) = assay: microbe, parasite or virus in culture; settings: Influenza A virus, H7N9, MDCK
[6] = system: EV71 (hand-foot-and-mouth virus); settings: EV71 in host cell RD
[7] = system: Dengue Virus 2 (type 2 dengue virus); assay: Inhibition of viral replication (CPE) at cellular level, Dengue Virus 2 in Vero; format: cell-based; settings: Dengue Virus 2 in host cell Vero
Description: Activity Test for Inhibition of Viral Replication at Cellular Level […]
The present inventors tested inhibitory effects of the compound of the present invention on cytopathic effects (CPE) caused by viral infection on mammalian cells.
Half-inhibitory concentration IC50 and half toxic concentration TC50 of the compound against Dengue Virus 2 (type 2 dengue virus) in host cell Vero (African green monkey kidney cell).

[8] = system: EV71 (hand-foot-and-mouth virus); assay: microbe, parasite or virus in culture; settings: Enterovirus A
[9] = system: RSV (human respiratory syncytial virus); assay: Inhibition of viral replication (CPE) at cellular level, RSV in Vero
Zika Virus = assay: Inhibition of viral replication (CPE) at cellular level, Zika Virus in Vero
in vitro [10] = settings: African green monkey, TC50, host cell Vero
[11] = Determination of TC50 (half toxicity concentration) in RD cells; format: cell-based; settings: human, host cell RD, EV71 table
[12] = TC50, host cell MDCK, H1N1 table
[13] = TC50, host cell MDCK, H3N2 table

| Compound | IC50 (H3N2 (influenza virus) [1]; H3N2 in host cell MDCK, CPE) [µM] | SI (TC50/IC50) (H3N2 (influenza virus) [2]) | CC50 (in vitro [3]; [12]) [µM] | CC50 (in vitro [3]; [13]) [µM] | IC50 (H1N1 (influenza virus) [4]; H1N1 in host cell MDCK, CPE) [µM] | SI (TC50/IC50) (H1N1 (influenza virus) [5]) | further results |
| --- | --- | --- | --- | --- | --- | --- | --- |
| CCCN(/N=C/c1ccccc1C(=O)O)c1nc(-c2ccccc2Cl)cs1 [Compound 3, (E)-4-(2-chlorophenyl)-2-[1-propyl-2-(2-carboxybenzylidene)hydrazino]thiazole] | 25 | 2.08 | 86 | 52 | 12.3 | 7 |  |
| CC(C)N(/N=C/c1ccccc1C(=O)O)c1nc(-c2ccccc2Cl)cs1 [Compound 4, (E)-4-(2-chlorophenyl)-2-[1-isopropyl-2-(2-carboxybenzylidene)hydrazino]thiazole] | 112 | 0.31 | 23 | 35 | 2.6 | 8.8 |  |
| CCC(C)N(/N=C/c1ccccc1C(=O)O)c1nc(-c2ccccc2Cl)cs1 (stereo not drawn) [Compound 5, (E)-4-(2-chlorophenyl)-2-[1-(2-butyl)-2-(2-carboxybenzylidene)hydrazino]thiazole] | 243 | 0.37 | 68 | 89 | 52 | 1.3 |  |
| CCCC(C)N(/N=C/c1ccccc1C(=O)O)c1nc(-c2ccccc2Cl)cs1 (stereo not drawn) [Compound 6, (E)-4-(2-chlorophenyl)-2-[1-(2-amyl)-2-(2-carboxybenzylidene)hydrazino]thiazole] | 554 | 0.18 | 451 | 97 | 124 | 2 |  |
| O=C(O)c1ccccc1/C=N/N(CCO)c1nc(-c2ccccc2Cl)cs1 [Compound 7] | 248 | 0.5 | 355 | 124 | 221 | 1.6 |  |
| Cc1ccc(/C=N/N(C)c2nc(-c3ccccc3)c(C)s2)c(C(=O)O)c1 [Compound 11, (E)-5-methyl-4-phenyl-2-[1-methyl-2-(4-methyl-2-carboxybenzylidene)hydrazino]thiazole] | 86 | 2.72 | 241 | 234 | 5.1 | 47 | IC50 (H7N9 (influenza virus)): 14 µM; CC50 (in vitro [3]; TC50): 54 µM |
| Cc1sc(N(C)/N=C/c2ccccc2C(=O)O)nc1-c1ccccc1Cl [Compound 13] | 114 | 3.27 | 87 | 373 | 65 | 1.3 |  |
| CCc1sc(N/N=C/c2ccccc2C(=O)O)nc1-c1ccccc1Cl [Compound 14, (E)-5-ethyl-4-(2-chlorophenyl)-2-(2-carboxylbenzylidenehydrazino)thiazole] | 550 | 0.16 | 88 | 91 | 41 | 2.1 |  |
| Cc1sc(N/N=C/c2ccccc2C(=O)O)nc1-c1ccccc1Cl [Compound 15, (E)-5-methyl-4-(2-chlorophenyl)-2-(2-carboxylbenzylidenehydrazino)thiazole] | 351 |  | 412 | 88 | 124 | 3.3 |  |
| Cc1sc(N/N=C/c2ccccc2C(=O)O)nc1-c1ccccc1 [Compound 17, (E)-5-methyl-4-phenyl-2-(2-carboxylbenzylidenehydrazino)thiazole] | 1.5 | 62.6 | 561 | 94 | 8.1 | 7 |  |
| O=C(O)c1ccccc1/C=N/Nc1nc(-c2ccccc2)cs1 [Compound 18, (E)-4-phenyl-2-(2-carboxybenzylidenehydrazino)thiazole] | 45 | 3.3 | 124 | 148 | 10.2 | 12 |  |
| CN(/N=C/c1ccccc1C(=O)O)c1nc(-c2cc(Cl)ccc2Cl)cs1 [Compound 19, (E)-4-(2,5-dichlorophenyl)-2-[1-methyl-2-(2-carboxybenzylidene)hydrazino]thiazole] | 0.9 | 47.8 | 26 | 43 | 0.56 | 46 |  |
| CN(/N=C/c1ccccc1C(=O)O)c1nc(-c2ccccc2)cs1 [Compound 20, (E)-4-phenyl-2-[1-methyl-2-(2-carboxybenzylidene)hydrazino]thiazole] | 5.2 | 11 | 57 | 57 | 2.5 | 22.8 |  |
| CN(/N=C/c1ccccc1C(=O)O)c1nc(-c2cccc(Cl)c2)cs1 [Compound 21, (E)-4-(3-chlorophenyl)-2-[1-methyl-2-(2-carboxybenzylidene)hydrazino]thiazole] | 2.5 | 19.6 | 41 | 49 | 5.4 | 7.6 |  |
| CCCC(C)N(/N=C/c1ccccc1C(=O)O)c1nc(-c2ccccc2Cl)c(C)s1 (stereo not drawn) [Compound 22, (E)-5-methyl-4-(2-chlorophenyl)-2-[1-(2-amyl)-2-(2-carboxybenzylidene)hydrazino]thiazole] | 248 | 1.6 | 148 | 415 | 55 | 2.7 |  |
| CN(/N=C/c1cc(F)c(F)cc1C(=O)O)c1nc(-c2ccccc2Cl)cs1 [Compound 23] |  |  | 87 |  | 0.39 | 223 | IC50 (H7N9 (influenza virus)): 0.35 µM; CC50 (in vitro [3]; TC50): 54 µM |
| CN(/N=C/c1cc(O)c(F)cc1C(=O)O)c1nc(-c2ccccc2Cl)cs1 [Compound 24] | 152 |  |  |  | 325 |  |  |
| CN(/N=C/c1cc(N)c(F)cc1C(=O)O)c1nc(-c2ccccc2Cl)cs1 [Compound 25] | 742 |  |  |  | 485 |  |  |
| COc1cccc(-c2csc(N/N=C/c3ccccc3C(=O)O)n2)c1 [Compound 52, (E)-2-((2-(4-(3-methoxyphenyl)thiazol-2-yl)hydrazono)methyl)benzoic Acid] | 147 |  |  |  | 1240 |  |  |
| NC(=O)c1cccc(-c2csc(N/N=C/c3ccccc3C(=O)O)n2)c1 [Compound 53, (E)-2-((2-(4-(3-aminoformylphenyl)thiazol-2-yl)hydrazono)methyl)benzoic Acid] | 216 |  |  |  | 781 |  |  |
| Cc1ccc(-c2csc(N/N=C/c3ccccc3C(=O)O)n2)cc1 [Compound 54, (E)-2-((2-(4-(p-tolyl)thiazol-2-yl)hydrazono)methyl)benzoic Acid] | 326 |  |  |  | 112 |  |  |
| O=C(O)c1ccccc1/C=N/Nc1nc(-c2cc(Cl)ccc2Cl)cs1 [Compound 55, (E)-2-((2-(4-(2,5-dichlorophenyl)thiazol-2-yl)hydrazono)methyl)benzoic Acid] |  | 45.6 |  |  |  | 50 | SI (TC50/IC50) [6]: 6; IC50 (H7N9 (influenza virus)): 6.9 µM; IC50 (H3N2 (influenza virus) [1]): 12 µM; SI (TC50/IC50) [7]: 110; IC50 ([7]; CPE): 0.63 µM; IC50 [8]: 0.51 µM; CC50 (in vitro [3]; TC50): 547 µM; IC50 (H1N1 (influenza virus) [4]): 8.2 µM; SI (TC50/IC50) ([9]; RSV in host cell Vero): 19; IC50 ([9]; human respiratory syncytial virus, Vero): 8.2 µM; SI (TC50/IC50) (Zika Virus; Zika Virus in host cell Vero): 206; IC50 (Zika Virus; Zika virus, Vero): 0.33 µM; CC50 (in vitro [10]; Dengue Virus 2 table): 69 µM; CC50 (in vitro [10]; RSV table): 154 µM; CC50 (in vitro [10]; Zika Virus table): 68 µM; CC50 [11]: 3.1 µM |
| O=C(O)c1ccccc1/C=N/Nc1nc(-c2ccc3ccccc3c2)cs1 [Compound 56, (E)-2-((2-(4-(naphthalen-2-yl)thiazol-2-yl)hydrazono)methyl)benzoic Acid] | 549 |  |  |  | 2310 |  |  |
| O=C(O)c1ccccc1/C=N/Nc1nc(-c2ccc(-c3ccccc3)cc2)cs1 [Compound 57, (E)-2-((2-(4-(biphenyl-4-yl)thiazol-2-yl)hydrazono)methyl)benzoic Acid] | 4430 |  |  |  | 1290 |  |  |
| O=C(O)c1c(F)cccc1/C=N/Nc1nc(-c2ccccc2Cl)cs1 [Compound 58, (E)-2-((2-(4-(2-chlorophenyl)thiazol-2-yl)hydrazono)methyl)-6-fluorobenzoic Acid] | 365 |  | 254 |  | 5.6 | 45 |  |
